Laboratory results reported in PubChem BioAssay (NCI).
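Cells were grown in 96-well plates and exposed to each compound for 48 hours at five concentrations; endpoints were interpolated linearly between bracketing concentrations, or set to the highest concentration if not reached. GI50 marks 50% less growth. TGI: total growth inhibition.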

Experiments:
Assay in all cases: NCI tumour cell line growth inhibition, 48 h; in the data active = GI50 below about 0.43 µM; inactive = the rest
[1] = tested on: 786-0 renal
[2] = tested on: A498 renal
[3] = tested on: A549 NSCLC
[4] = tested on: ACHN renal
[5] = tested on: BT-549 breast
[6] = tested on: CAKI-1 renal
[7] = tested on: CCRF-CEM leukemia
[8] = tested on: COLO 205 colon
[9] = tested on: DU-145 prostate
[10] = tested on: EKVX NSCLC
[11] = tested on: HCC-2998 colon
[12] = tested on: HCT-116 colon
[13] = tested on: HCT-15 colon
[14] = tested on: HL-60(TB) leukemia
[15] = tested on: HOP-62 NSCLC
[16] = tested on: HOP-92 NSCLC
[17] = tested on: HS 578T breast
[18] = tested on: HT29 colon
[19] = tested on: IGROV1 ovarian
[20] = tested on: K-562 leukemia
[21] = tested on: KM12 colon
[22] = tested on: LOX IMVI melanoma
[23] = tested on: M14 melanoma
[24] = tested on: MALME-3M melanoma
[25] = tested on: MCF7 breast
[26] = tested on: MDA-MB-231 breast
[27] = tested on: MDA-MB-435
[28] = tested on: MOLT-4 leukemia
[29] = tested on: NCI-H226 lung
[30] = tested on: NCI-H23 lung
[31] = tested on: NCI-H460 lung
[32] = tested on: NCI-H522 lung
[33] = tested on: NCI/ADR-RES ovarian
[34] = tested on: OVCAR-3 ovarian
[35] = tested on: OVCAR-5 ovarian
[36] = tested on: OVCAR-8 ovarian
[37] = tested on: PC-3 prostate
[38] = tested on: RPMI-8226 leukemia
[39] = tested on: RXF 393 renal
[40] = tested on: SF-268 CNS
[41] = tested on: SF-295 CNS
[42] = tested on: SF-539 CNS
[43] = tested on: SK-MEL-2 melanoma
[44] = tested on: SK-MEL-28 melanoma
[45] = tested on: SK-MEL-5 melanoma
[46] = tested on: SK-OV-3 ovarian
[47] = tested on: SN12C renal
[48] = tested on: SNB-19 CNS
[49] = tested on: SNB-75 CNS
[50] = tested on: SR leukemia
[51] = tested on: SW-620 colon
[52] = tested on: T-47D breast
[53] = tested on: TK-10 renal
[54] = tested on: U251 CNS
[55] = tested on: UACC-257 melanoma
[56] = tested on: UACC-62 melanoma
[57] = tested on: UO-31 renal
[58] = tested on: OVCAR-4 ovarian

Cn1cnc([N+](=O)[O-])c1S(=O)(=O)Oc1ccc(Cl)cc1
39 µM: TGI [15]
7.05 µM: TGI [7]
4.15 µM: TGI [24]
2.09 µM: TGI [8]
29.1 µM: TGI [56]
inactive: GI50 [1] 17 µM | GI50 [2] 17 µM | GI50 [3] 58.2 µM | GI50 [4] 1.8 µM | GI50 [5] 13.3 µM | GI50 [6] 1.67 µM | GI50 [7] 2.33 µM | GI50 [8] 0.546 µM | GI50 [9] 4.75 µM | GI50 [10] 19.1 µM | GI50 [11] 15.9 µM | GI50 [12] 8.59 µM | GI50 [13] 1.64 µM | GI50 [14] 1.85 µM | GI50 [15] 16.1 µM | GI50 [16] 1.61 µM | GI50 [17] 19.6 µM | GI50 [18] 2.33 µM | GI50 [19] 2.14 µM | GI50 [20] 2.99 µM | GI50 [21] 23 µM | GI50 [22] 1.73 µM | GI50 [23] 2.36 µM | GI50 [24] 1.99 µM | GI50 [25] 22.9 µM | GI50 [26] 2.8 µM | GI50 [27] 16.2 µM | GI50 [28] 2.25 µM | GI50 [29] 18.6 µM | GI50 [30] 8.88 µM | GI50 [31] 32.3 µM | GI50 [32] 1.82 µM | GI50 [33] 11.7 µM | GI50 [34] 1.86 µM | GI50 [35] 15.6 µM | GI50 [36] 18.8 µM | GI50 [37] 17.2 µM | GI50 [38] 3.58 µM | GI50 [39] 2.77 µM | GI50 [40] 15.7 µM | GI50 [41] 25.2 µM | GI50 [42] 7.11 µM | GI50 [43] 18.7 µM | GI50 [44] 19.2 µM | GI50 [45] 15.7 µM | GI50 [46] 50.5 µM | GI50 [47] 13.2 µM | GI50 [48] > 100 µM | GI50 [49] 14.1 µM | GI50 [50] 1.85 µM | GI50 [51] 1.69 µM | GI50 [52] 2.21 µM | GI50 [53] 27.8 µM | GI50 [54] 16.6 µM | GI50 [55] 3.59 µM | GI50 [56] 13.2 µM | GI50 [57] 2.36 µM
3.57 µM: TGI [22]
33 µM: TGI [1]
4.36 µM: TGI [50]
49.6 µM: TGI [10]
8.01 µM: TGI [39]
39.1 µM: TGI [35]
28.8 µM: TGI [5]
21 µM: TGI [42]
25.6 µM: TGI [30]
96.1 µM: TGI [25]
6.3 µM: TGI [52]
5.36 µM: TGI [18]
55.8 µM: TGI [54]
58 µM: TGI [29]
4.22 µM: TGI [32]
5.21 µM: TGI [23]
32.3 µM: TGI [45]
29.7 µM: TGI [49]
49.2 µM: TGI [37]
3.51 µM: TGI [6]
3.47 µM: TGI [13]
17.8 µM: TGI [9]
3.29 µM: TGI [51]
21.8 µM: TGI [12]
38.1 µM: TGI [40]
5.26 µM: TGI [28]
68.1 µM: TGI [17]
91.4 µM: TGI [21]
17.7 µM: TGI [38]
36.2 µM: TGI [27]
16.6 µM: TGI [55]
42.5 µM: TGI [2]
10.2 µM: TGI [20]
5.99 µM: TGI [26]
51.8 µM: TGI [44]
64.3 µM: TGI [33]
8.75 µM: TGI [57]
97.1 µM: TGI [36]
3.37 µM: TGI [16]
3.77 µM: TGI [14]
5.58 µM: TGI [19]
30.2 µM: TGI [11]
3.28 µM: TGI [4]
3.42 µM: TGI [34]
61.1 µM: TGI [43]
30.8 µM: TGI [47]
> 100 µM: TGI [3] | TGI [31] | TGI [41] | TGI [46] | TGI [48] | TGI [53]

Cc1ccc(-c2cc(C(=O)Nc3ccc(S(=O)(=O)N4CCCCC4)cc3)[nH]n2)c(O)c1
inactive: GI50 [1] > 100 µM | GI50 [2] > 100 µM | GI50 [3] > 100 µM | GI50 [4] > 100 µM | GI50 [5] > 100 µM | GI50 [6] > 100 µM | GI50 [7] 59.6 µM | GI50 [8] > 100 µM | GI50 [9] > 100 µM | GI50 [11] > 100 µM | GI50 [12] > 100 µM | GI50 [13] > 100 µM | GI50 [14] > 100 µM | GI50 [15] > 100 µM | GI50 [16] > 100 µM | GI50 [17] > 100 µM | GI50 [18] > 100 µM | GI50 [19] > 100 µM | GI50 [20] 74.1 µM | GI50 [21] > 100 µM | GI50 [22] > 100 µM | GI50 [24] > 100 µM | GI50 [25] > 100 µM | GI50 [26] 16.8 µM | GI50 [27] > 100 µM | GI50 [28] 55.1 µM | GI50 [29] > 100 µM | GI50 [30] > 100 µM | GI50 [31] > 100 µM | GI50 [32] > 100 µM | GI50 [33] > 100 µM | GI50 [34] > 100 µM | GI50 [58] > 100 µM | GI50 [35] > 100 µM | GI50 [36] > 100 µM | GI50 [37] > 100 µM | GI50 [38] > 100 µM | GI50 [39] > 100 µM | GI50 [40] > 100 µM | GI50 [41] > 100 µM | GI50 [42] > 100 µM | GI50 [43] > 100 µM | GI50 [44] > 100 µM | GI50 [45] > 100 µM | GI50 [46] > 100 µM | GI50 [47] > 100 µM | GI50 [48] > 100 µM | GI50 [49] > 100 µM | GI50 [50] 22.3 µM | GI50 [51] > 100 µM | GI50 [52] > 100 µM | GI50 [53] > 100 µM | GI50 [54] > 100 µM | GI50 [55] > 100 µM | GI50 [56] > 100 µM | GI50 [57] > 100 µM
> 100 µM: TGI [1] | TGI [2] | TGI [3] | TGI [4] | TGI [5] | TGI [6] | TGI [7] | TGI [8] | TGI [9] | TGI [11] | TGI [12] | TGI [13] | TGI [14] | TGI [15] | TGI [16] | TGI [17] | TGI [18] | TGI [19] | TGI [20] | TGI [21] | TGI [22] | TGI [24] | TGI [25] | TGI [26] | TGI [27] | TGI [28] | TGI [29] | TGI [30] | TGI [31] | TGI [32] | TGI [33] | TGI [34] | TGI [58] | TGI [35] | TGI [36] | TGI [37] | TGI [38] | TGI [39] | TGI [40] | TGI [41] | TGI [42] | TGI [43] | TGI [44] | TGI [45] | TGI [46] | TGI [47] | TGI [48] | TGI [49] | TGI [50] | TGI [51] | TGI [52] | TGI [53] | TGI [54] | TGI [55] | TGI [56] | TGI [57]
